# Experiments:
# Assay in all cases: Kinase selectivity, scanMAX Kinase assay panel (DiscoverX), % control at 1 uM
# Assay type in all cases: binding
# [1] = target: T1, scanMAX Kinase assay panel (Homo sapiens, UniProt O43283); conditions: LZK; 1 uM; read-out: Percent Control (%)
# T1 construct: purchased DiscoverX
# T1 sequence (O43283 1-966): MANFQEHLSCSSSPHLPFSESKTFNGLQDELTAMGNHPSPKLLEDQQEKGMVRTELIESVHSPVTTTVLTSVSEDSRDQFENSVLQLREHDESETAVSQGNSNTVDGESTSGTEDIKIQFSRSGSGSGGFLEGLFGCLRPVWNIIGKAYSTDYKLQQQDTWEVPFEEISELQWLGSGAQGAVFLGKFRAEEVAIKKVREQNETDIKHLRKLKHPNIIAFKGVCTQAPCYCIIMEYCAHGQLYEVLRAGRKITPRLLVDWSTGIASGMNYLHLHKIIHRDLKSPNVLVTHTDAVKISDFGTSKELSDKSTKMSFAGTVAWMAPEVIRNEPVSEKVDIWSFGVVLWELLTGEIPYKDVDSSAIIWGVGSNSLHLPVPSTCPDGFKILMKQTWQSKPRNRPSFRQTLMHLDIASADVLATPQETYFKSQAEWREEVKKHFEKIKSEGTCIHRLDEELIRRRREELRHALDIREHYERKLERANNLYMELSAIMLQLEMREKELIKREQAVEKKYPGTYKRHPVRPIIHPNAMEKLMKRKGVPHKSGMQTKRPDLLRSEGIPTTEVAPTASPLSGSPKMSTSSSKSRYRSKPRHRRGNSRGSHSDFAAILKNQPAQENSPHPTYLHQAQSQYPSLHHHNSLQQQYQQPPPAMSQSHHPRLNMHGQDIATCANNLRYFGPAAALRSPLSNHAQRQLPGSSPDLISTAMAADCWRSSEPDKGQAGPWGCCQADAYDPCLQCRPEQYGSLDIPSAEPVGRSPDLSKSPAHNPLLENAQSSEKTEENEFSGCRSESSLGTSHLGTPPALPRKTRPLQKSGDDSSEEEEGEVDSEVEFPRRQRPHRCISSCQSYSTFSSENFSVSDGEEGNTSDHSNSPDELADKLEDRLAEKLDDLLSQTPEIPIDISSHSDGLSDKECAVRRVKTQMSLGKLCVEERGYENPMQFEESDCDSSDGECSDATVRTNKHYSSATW
# Procedure, shortened: (§1)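 1 uM cpd (DMSO) per kinase; % ctrl = [cpd − pos ctrl]/[neg ctrl − pos ctrl] × 100; hit if <35.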
# [2] = target: T2, scanMAX Kinase assay panel (Homo sapiens, UniProt Q9Y6R4); conditions: MAP3K4; 1 uM; read-out: Percent Control (%)
# T2 construct: purchased DiscoverX
# Procedure, shortened: as §1
# [3] = target: T3, scanMAX Kinase assay panel (Homo sapiens, UniProt P00533, L858R); conditions: EGFR (L858R); 1 uM; read-out: Percent Control (%)
# T3 construct: purchased DiscoverX
# Procedure, shortened: as §1
# [4] = target: T4, scanMAX Kinase assay panel (Homo sapiens, UniProt Q16539); conditions: p38-alpha; 1 uM; read-out: Percent Control (%)
# T4 construct: purchased DiscoverX
# Procedure, shortened: as §1
# [5] = target: T5, scanMAX Kinase assay panel (Homo sapiens, UniProt Q96D53); conditions: ADCK4; 1 uM; read-out: Percent Control (%)
# T5 construct: purchased DiscoverX
# T5 sequence (Q96D53 1-544): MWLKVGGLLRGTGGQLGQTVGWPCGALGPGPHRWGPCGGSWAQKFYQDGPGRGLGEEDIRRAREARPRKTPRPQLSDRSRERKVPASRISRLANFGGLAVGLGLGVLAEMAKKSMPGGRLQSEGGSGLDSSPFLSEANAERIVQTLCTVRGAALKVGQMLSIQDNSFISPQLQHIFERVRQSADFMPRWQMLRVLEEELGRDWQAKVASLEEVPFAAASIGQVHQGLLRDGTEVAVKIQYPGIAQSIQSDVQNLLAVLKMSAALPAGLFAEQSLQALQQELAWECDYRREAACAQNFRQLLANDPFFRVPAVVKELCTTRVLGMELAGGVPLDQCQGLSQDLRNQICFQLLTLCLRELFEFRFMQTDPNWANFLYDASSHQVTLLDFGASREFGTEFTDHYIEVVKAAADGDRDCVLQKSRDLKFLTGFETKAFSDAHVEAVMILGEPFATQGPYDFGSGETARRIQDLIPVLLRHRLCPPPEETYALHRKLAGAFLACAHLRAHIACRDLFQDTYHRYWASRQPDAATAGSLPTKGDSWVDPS
# Procedure, shortened: as §1
# [6] = target: T6, scanMAX Kinase assay panel (Homo sapiens, UniProt Q9UM73, L1196M); conditions: ALK (L1196M); 1 uM; read-out: Percent Control (%)
# T6 construct: purchased DiscoverX
# Procedure, shortened: as §1
# T6 sequence (Q9UM73 19-1620 L1196M): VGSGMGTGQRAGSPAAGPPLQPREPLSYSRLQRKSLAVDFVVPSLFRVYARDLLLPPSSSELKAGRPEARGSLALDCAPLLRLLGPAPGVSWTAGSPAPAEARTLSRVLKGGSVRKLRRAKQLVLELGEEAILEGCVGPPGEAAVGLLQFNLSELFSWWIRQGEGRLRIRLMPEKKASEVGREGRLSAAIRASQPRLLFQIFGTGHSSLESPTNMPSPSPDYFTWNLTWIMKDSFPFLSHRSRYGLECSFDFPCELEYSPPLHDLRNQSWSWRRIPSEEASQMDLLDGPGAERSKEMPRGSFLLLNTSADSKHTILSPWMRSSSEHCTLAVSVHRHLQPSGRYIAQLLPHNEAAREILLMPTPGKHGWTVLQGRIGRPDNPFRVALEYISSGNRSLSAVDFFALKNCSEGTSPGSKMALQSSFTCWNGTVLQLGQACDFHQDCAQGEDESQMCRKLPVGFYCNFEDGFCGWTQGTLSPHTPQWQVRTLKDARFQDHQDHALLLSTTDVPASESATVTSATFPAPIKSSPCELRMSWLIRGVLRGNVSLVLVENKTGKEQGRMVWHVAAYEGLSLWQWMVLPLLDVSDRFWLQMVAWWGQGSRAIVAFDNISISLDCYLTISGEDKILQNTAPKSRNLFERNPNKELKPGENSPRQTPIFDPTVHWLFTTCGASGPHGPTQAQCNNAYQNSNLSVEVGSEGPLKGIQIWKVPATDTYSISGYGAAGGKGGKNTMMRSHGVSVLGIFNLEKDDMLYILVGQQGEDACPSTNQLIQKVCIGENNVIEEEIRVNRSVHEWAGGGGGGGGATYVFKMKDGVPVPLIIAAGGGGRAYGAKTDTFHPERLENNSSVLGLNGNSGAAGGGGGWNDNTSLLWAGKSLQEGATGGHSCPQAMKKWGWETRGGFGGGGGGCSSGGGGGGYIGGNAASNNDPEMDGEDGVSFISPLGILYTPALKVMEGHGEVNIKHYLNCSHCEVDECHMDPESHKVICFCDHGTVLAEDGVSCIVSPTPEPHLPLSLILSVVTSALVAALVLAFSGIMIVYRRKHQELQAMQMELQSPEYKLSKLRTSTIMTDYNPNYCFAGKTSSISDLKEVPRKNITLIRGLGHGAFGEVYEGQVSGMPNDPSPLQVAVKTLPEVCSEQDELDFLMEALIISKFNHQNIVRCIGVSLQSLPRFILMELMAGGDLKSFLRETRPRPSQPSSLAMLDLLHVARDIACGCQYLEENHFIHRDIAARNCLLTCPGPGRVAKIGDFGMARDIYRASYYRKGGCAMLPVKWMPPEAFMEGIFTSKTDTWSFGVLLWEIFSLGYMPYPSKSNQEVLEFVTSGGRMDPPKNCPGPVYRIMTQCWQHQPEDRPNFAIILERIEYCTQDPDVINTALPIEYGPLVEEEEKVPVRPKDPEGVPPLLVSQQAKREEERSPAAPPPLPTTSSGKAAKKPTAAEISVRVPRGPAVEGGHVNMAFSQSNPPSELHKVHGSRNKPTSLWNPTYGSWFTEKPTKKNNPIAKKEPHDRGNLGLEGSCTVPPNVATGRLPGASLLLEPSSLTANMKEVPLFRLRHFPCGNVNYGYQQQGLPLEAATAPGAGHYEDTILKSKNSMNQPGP
# T3 sequence (P00533 25-1210 L858R): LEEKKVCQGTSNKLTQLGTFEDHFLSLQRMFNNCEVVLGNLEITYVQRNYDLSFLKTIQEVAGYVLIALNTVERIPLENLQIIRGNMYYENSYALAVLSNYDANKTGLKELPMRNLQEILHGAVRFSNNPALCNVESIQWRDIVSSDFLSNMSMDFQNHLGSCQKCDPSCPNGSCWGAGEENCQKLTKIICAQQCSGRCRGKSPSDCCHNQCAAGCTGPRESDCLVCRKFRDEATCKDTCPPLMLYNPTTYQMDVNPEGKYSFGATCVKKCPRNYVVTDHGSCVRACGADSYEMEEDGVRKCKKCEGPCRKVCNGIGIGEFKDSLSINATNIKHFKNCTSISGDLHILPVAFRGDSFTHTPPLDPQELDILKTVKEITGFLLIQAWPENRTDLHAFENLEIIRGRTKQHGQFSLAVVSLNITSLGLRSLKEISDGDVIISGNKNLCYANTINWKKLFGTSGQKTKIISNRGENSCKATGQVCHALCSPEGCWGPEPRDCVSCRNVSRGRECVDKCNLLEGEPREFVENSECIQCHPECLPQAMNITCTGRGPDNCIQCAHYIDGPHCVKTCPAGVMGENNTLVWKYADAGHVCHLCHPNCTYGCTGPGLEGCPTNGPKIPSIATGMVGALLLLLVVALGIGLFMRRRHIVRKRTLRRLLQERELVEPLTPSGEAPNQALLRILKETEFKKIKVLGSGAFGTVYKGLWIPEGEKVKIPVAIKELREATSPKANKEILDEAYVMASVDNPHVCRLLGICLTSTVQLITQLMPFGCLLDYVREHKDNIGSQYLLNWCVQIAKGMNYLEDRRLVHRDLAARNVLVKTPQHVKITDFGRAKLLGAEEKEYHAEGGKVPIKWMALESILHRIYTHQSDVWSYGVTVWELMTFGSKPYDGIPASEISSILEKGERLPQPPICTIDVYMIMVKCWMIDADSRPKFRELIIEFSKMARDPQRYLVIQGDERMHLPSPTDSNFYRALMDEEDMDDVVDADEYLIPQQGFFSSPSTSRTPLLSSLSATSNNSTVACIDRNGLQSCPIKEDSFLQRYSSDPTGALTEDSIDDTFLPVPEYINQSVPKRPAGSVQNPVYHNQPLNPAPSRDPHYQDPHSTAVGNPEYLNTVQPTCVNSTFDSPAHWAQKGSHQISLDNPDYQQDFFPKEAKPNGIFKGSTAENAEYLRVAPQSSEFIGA
# T2 sequence (Q9Y6R4 whole entry): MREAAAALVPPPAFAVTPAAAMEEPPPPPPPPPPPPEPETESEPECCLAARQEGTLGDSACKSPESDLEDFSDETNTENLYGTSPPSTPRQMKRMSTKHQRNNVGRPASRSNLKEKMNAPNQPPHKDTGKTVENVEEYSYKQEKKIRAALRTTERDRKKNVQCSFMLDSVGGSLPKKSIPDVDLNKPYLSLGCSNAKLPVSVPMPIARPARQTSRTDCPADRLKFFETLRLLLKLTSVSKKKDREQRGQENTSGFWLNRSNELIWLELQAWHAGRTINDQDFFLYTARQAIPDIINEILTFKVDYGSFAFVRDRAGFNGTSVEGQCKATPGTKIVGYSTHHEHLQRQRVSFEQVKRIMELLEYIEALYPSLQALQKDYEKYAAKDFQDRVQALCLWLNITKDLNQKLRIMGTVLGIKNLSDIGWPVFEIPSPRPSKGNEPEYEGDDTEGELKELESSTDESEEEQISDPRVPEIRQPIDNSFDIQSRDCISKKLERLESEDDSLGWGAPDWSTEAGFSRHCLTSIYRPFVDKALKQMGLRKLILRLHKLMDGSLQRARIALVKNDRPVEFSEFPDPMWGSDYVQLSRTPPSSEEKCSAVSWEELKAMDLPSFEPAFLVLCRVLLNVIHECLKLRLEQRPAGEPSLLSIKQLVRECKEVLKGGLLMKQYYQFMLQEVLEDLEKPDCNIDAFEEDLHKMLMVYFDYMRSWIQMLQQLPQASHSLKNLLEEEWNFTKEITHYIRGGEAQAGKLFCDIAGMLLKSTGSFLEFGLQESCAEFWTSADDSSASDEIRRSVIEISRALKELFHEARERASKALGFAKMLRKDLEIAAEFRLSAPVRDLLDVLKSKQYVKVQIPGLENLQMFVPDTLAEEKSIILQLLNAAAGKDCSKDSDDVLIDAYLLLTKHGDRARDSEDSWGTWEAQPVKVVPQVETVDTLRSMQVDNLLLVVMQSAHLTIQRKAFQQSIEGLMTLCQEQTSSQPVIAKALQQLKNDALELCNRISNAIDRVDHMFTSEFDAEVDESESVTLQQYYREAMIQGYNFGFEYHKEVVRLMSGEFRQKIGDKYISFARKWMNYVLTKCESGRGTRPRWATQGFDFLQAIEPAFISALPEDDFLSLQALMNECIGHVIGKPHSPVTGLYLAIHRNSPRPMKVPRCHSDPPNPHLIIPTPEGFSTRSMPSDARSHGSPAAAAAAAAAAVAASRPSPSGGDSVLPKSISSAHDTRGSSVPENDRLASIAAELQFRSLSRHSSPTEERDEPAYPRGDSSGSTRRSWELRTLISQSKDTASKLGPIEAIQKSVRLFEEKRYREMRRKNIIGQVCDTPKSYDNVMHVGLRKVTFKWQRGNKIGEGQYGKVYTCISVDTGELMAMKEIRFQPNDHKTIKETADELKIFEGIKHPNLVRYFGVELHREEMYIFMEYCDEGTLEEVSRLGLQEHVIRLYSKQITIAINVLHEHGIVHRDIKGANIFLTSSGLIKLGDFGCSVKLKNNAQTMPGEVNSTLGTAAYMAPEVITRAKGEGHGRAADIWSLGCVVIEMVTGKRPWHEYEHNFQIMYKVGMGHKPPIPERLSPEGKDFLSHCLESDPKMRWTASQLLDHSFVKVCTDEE
# T4 sequence (Q16539 whole entry): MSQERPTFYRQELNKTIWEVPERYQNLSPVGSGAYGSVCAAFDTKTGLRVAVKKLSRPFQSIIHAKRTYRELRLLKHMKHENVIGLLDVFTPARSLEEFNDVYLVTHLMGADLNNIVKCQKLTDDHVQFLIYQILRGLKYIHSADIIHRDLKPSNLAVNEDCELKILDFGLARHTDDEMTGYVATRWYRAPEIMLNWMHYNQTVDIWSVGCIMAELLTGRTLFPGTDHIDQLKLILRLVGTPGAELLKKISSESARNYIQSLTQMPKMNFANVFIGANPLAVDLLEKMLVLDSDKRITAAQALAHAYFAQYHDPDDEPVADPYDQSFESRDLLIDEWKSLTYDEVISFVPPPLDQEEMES
SMILES,remaining binding at 1 µM [1],remaining binding at 1 µM [2],remaining binding at 1 µM [3],remaining binding at 1 µM [4],remaining binding at 1 µM [5],remaining binding at 1 µM [6]
"Cc1ccc(C(=O)Nc2ccc(CN3CCN(C)CC3)c(C(F)(F)F)c2)cc1C#Cc1cnc2c(Nc3cnn(C)c3)cccn12 [Example 1, 4-methyl-3-((8-((1-methyl-1H-pyrazol-4-yl)amino)imidazo[1,2-a]pyridin-3-yl)ethynyl)-N-(4-((4-methylpiperazin-1-yl)methyl)-3-(trifluoromethyl)phenyl)benzamide]",71%,70%,0%,0%,88%,29%
"Cc1cn(-c2cc(NC(=O)c3ccc(C)c(C#Cc4cnc5c(Nc6cnn(C)c6)cccn45)c3)cc(C(F)(F)F)c2)cn1 [Example 12, 4-methyl-N-(3-(4-methyl-1H-imidazol-1-yl)-5-(trifluoromethyl)phenyl)-3-((8-((1-methyl-1H-pyrazol-4-yl)amino)imidazo[1,2-a]pyridin-3-yl)ethynyl)benzamide]",100%,92%,47%,7%,95%,100%
Cc1ccc(NC(=O)C2(C(=O)Nc3ccc(F)cc3)CC2)cc1C#Cc1cnc2c(Nc3cnn(C(C)C)c3)cccn12 [Example 78],94%,90%,84%,14%,100%,100%
